According to the CheMixHub viscosity set:
Several values for one entry are separate records, joined by “and”; a condition that tells them apart may be missing. Identical values can stand only once. ± gives the uncertainty stated by the source.

CC1=CCC(=C(C)C)CC1
101 kPa
Settings	viscosity [mPa·s]
303.15 K	1.007 ± 0.055
308.15 K	0.945 ± 0.051
313.15 K	0.884 ± 0.048

CCCC(C)C
101.33 kPa
Settings	viscosity [mPa·s]
298 K	0.2753 ± 0.0048
298.15 K	0.2767 ± 0.003

CCCCCC(=O)O.CCCCCC(=O)[O-].CC[NH+](CC)CCO
101 kPa
Settings	viscosity [mPa·s]
293.15 K	76.9 ± 1.7
298.15 K	60.01 ± 1.3
303.15 K	47.52 ± 1
308.15 K	38.14 ± 0.82
313.15 K	31 ± 0.67
318.15 K	25.48 ± 0.55
323.15 K	21.16 ± 0.45

CCCCCCCCCCCCCCCCCCCCCC
Settings	viscosity [mPa·s]
323.1 K, 101.3 kPa	4.128 ± 0.046

CCO
Settings	viscosity
293.61 K, 100 kPa	1.18 ± 0.06 mPa·s
293.91 K, 100 kPa	1.17 ± 0.06 mPa·s
294.21 K, 100 kPa	1.17 ± 0.06 mPa·s
294.52 K, 100 kPa	1.16 ± 0.06 mPa·s
294.82 K, 100 kPa	1.16 ± 0.06 mPa·s
295.12 K, 100 kPa	1.15 ± 0.06 mPa·s
295.42 K, 100 kPa	1.15 ± 0.06 mPa·s
295.73 K, 100 kPa	1.14 ± 0.06 mPa·s
296.03 K, 100 kPa	1.14 ± 0.06 mPa·s
296.33 K, 100 kPa	1.13 ± 0.06 mPa·s
296.64 K, 100 kPa	1.13 ± 0.06 mPa·s
296.94 K, 100 kPa	1.12 ± 0.06 mPa·s
297.24 K, 100 kPa	1.12 ± 0.06 mPa·s
298.15 K, 101 kPa	1.03 ± 0.03 mPa·s
299.06 K, 100 kPa	1.08 ± 0.06 mPa·s
299.36 K, 100 kPa	1.08 ± 0.06 mPa·s
299.67 K, 100 kPa	1.07 ± 0.05 mPa·s
299.97 K, 100 kPa	1.07 ± 0.05 mPa·s
300.27 K, 100 kPa	1.06 ± 0.05 mPa·s
300.58 K, 100 kPa	1.06 ± 0.05 mPa·s
300.88 K, 100 kPa	1.05 ± 0.05 mPa·s
301.18 K, 100 kPa	1.05 ± 0.05 mPa·s
301.48 K, 100 kPa	1.04 ± 0.05 mPa·s
301.79 K, 100 kPa	1.04 ± 0.05 mPa·s
302.09 K, 100 kPa	1.03 ± 0.05 mPa·s
302.39 K, 100 kPa	1.03 ± 0.05 mPa·s
303.15 K, 100 kPa	0.989 ± 0.012 mPa·s
303.15 K, 101.33 kPa	0.988 ± 0.2 mPa·s
303.61 K, 100 kPa	1.01 ± 0.05 mPa·s
303.91 K, 100 kPa	1 ± 0.05 mPa·s
304.21 K, 100 kPa	1 ± 0.05 mPa·s
304.52 K, 100 kPa	0.99 ± 0.05 mPa·s
304.82 K, 100 kPa	0.99 ± 0.05 mPa·s
305.12 K, 100 kPa	0.98 ± 0.05 mPa·s
305.42 K, 100 kPa	0.98 ± 0.05 mPa·s
305.73 K, 100 kPa	0.97 ± 0.05 mPa·s
306.03 K, 100 kPa	0.97 ± 0.05 mPa·s
306.33 K, 100 kPa	0.96 ± 0.05 mPa·s
306.64 K, 100 kPa	0.96 ± 0.05 mPa·s
306.94 K, 100 kPa	0.95 ± 0.05 mPa·s
307.24 K, 100 kPa	0.95 ± 0.05 mPa·s
307.55 K, 100 kPa	0.94 ± 0.05 mPa·s
307.85 K, 100 kPa	0.94 ± 0.05 mPa·s
308.15 K, 100 kPa	0.93 ± 0.05 mPa·s
308.45 K, 100 kPa	0.93 ± 0.05 mPa·s
308.76 K, 100 kPa	0.92 ± 0.05 mPa·s
309.06 K, 100 kPa	0.92 ± 0.05 mPa·s
309.36 K, 100 kPa	0.91 ± 0.05 mPa·s
309.67 K, 100 kPa	0.91 ± 0.05 mPa·s
309.97 K, 100 kPa	0.9 ± 0.05 mPa·s
310.27 K, 100 kPa	0.9 ± 0.05 mPa·s
310.58 K, 100 kPa	0.89 ± 0.05 mPa·s
310.88 K, 100 kPa	0.89 ± 0.05 mPa·s
311.18 K, 100 kPa	0.88 ± 0.05 mPa·s
311.48 K, 100 kPa	0.88 ± 0.05 mPa·s
313.15 K, 100 kPa	0.8179 ± 0.011 mPa·s and 0.82 ± 0.05 mPa·s
313.15 K, 101.32 kPa	0.835 ± 0.084 mPa·s
318.15 K, 100 kPa	0.75 ± 0.05 mPa·s
323 K, 101.33 kPa	0.673 ± 0.0063 mPa·s and 0.673 ± 0.046 mPa·s
323.15 K, 101.32 kPa	0.702 ± 0.07 mPa·s

CCOP(=O)(OCC)OCC
Settings	viscosity [mPa·s]
298.15 K, 101.3 kPa	1.503 ± 0.022

CCc1ccccc1
Settings	viscosity
298 K, 101 kPa	0.6295 ± 0.0052 mPa·s
298.15 K, 101 kPa	0.6076 ± 0.0076 mPa·s and 0.631 ± 0.008 mPa·s
298.15 K, 101.3 kPa	0.657 ± 0.006 mPa·s
298.15 K, 101.33 kPa	0.625 ± 0.017 mPa·s
303 K, 101.33 kPa	0.574 ± 0.0054 mPa·s
303.15 K, 100 kPa	0.592 ± 0.008 mPa·s
303.15 K, 101 kPa	0.5916 ± 0.0053 mPa·s
303.15 K, 101.33 kPa	0.584 ± 0.005 mPa·s
308.15 K, 100 kPa	0.56 ± 0.008 mPa·s
308.15 K, 101.33 kPa	0.5797 ± 0.0078 mPa·s and 0.56 ± 0.015 mPa·s
313 K, 101.33 kPa	0.513 ± 0.0049 mPa·s
313.15 K, 100 kPa	0.53 ± 0.008 mPa·s
313.15 K, 101.33 kPa	0.531 ± 0.004 mPa·s
318.15 K, 100 kPa	0.503 ± 0.008 mPa·s
318.15 K, 101.33 kPa	0.502 ± 0.014 mPa·s and 0.5038 ± 0.005 mPa·s
323 K, 101.33 kPa	0.464 ± 0.0045 mPa·s
323.15 K, 100 kPa	0.478 ± 0.007 mPa·s
323.15 K, 101.33 kPa	0.474 ± 0.013 mPa·s

N#CCCCCC#N
Settings	viscosity [mPa·s]
303.15 K, 101.33 kPa	4.905 ± 0.027

OCCCCCO
101 kPa
Settings	viscosity [mPa·s]
313.15 K	45.63 ± 2.6
318.15 K	36.87 ± 2.1
323.15 K	29.8 ± 1.7
